Reference: US20140348880A1, “Ortho-Aminothiophenol Compounds and Uses Thereof” (Cape Breton University, priority 2013, published 2014)

Key:
Bacillus cereus = assay: In vitro disc diffusion assay, ZOI (Example 3); format: cell-based; settings: 6 mm diameter discs; for ZOI: B. cereus; for Zone of Inhibition: Bacillus cereus
Experimental: (§1) Sterile assay discs (6 mm diameter) were obtained from VWR Whatman and antibiotic assay discs (6 mm diameter) containing getamicin (10 μg/disc) and the combination drug sulfamethoxazole 23.75 μg/disc and trimethoprim 1.25 μg/disc were obtained from Becton, Dickinson and Company (USA). Dimethyl sulfoxide (DMSO) for microbial experiments was BioReagent™ grade and was purchased from Sigma-Aldrich. The nutrient broth and Müller-Hinton agar was purchased from Becton, Dickinson and Company (USA). Bacillus cereus, Pseudomonas aeruginosa (#27853), Klebsiella pneumonia (#13883), Proteus vulgaris (#13315), Staphylococcus aureus (#25923) and Escherichia coli (#25922) strains were obtained from the American Type Culture Collection (ATCC). All materials in contact with antimicrobial matter was treated for 40 min at 121° C. and 20 psi in a biohazard autoclave bag prior to waste disposing or washing. McFarland turbity standards containing barium sulfate were obtained from bioMérieux.
(§2) The growth medium was prepared by addition of Müller-Hinton agar (38 g) to 1 L distilled water under vigorous stirring and boiled for 10 min until complete dissolution. After cooling to 25° C., the pH value of the medium was 7.3±0.1. The medium was sterilized in an autoclave at 121° C. for 15 min at 20 psi, cooled to 45-50° C. and dispended into sterile Petri dishes on a leveled, horizontal surface to give uniform depth. Stock solutions of the microorganisms were incubated at 37° C. for 24 h and the turbidity of the microbial colonies were adjusted visually with sterile saline (0.85% w/v NaCl) to 0.5 McFarland standards. Within 15 min after adjusting the turbidity of the suspensions, the Petri dishes were inoculated using sterile cotton buds. The prepared antibiotic assay discs were placed on the surface of the seeded Müller-Hinton agar using flame sterilized forceps.
(§3) Stock solutions of compounds and the Cu complexed compounds were made in DMSO and were micropipetted onto the discs for 25 to 200 μg compound/disc. The discs were dried at ambient temperature for 30-50 min before placement onto the seeded Petri dishes which were then incubated at 37° C. for 24 h. Averaged inhibition zone measurements (mm) have an accuracy of ±0.5 mm; adjacent overlapping ZOI were determined using radii measurements.

[1] = system: Staphylococcus aureus (#25923); assay: In vitro disc diffusion assay, ZOI (Example 3); format: cell-based; settings: 6 mm diameter discs; for ZOI: S. aureus; for Zone of Inhibition: Staphylococcus aureus
Experimental: as §1, §2, §3

B. cereus [2] = assay: Disc diffusion zone of inhibition (Example 2); format: cell-based, Bacillus cereus; settings: Bacillus cereus; for zone of inhibition at 200 µg/disc: 200 μg/disc
Experimental: as §2, with “turbidity of these microbial colony” for “turbidity of the microbial colonies”, “these microbial colony were adjusted” for “the microbial colonies were adjusted”, “0.5 McFarland standards (bioMerieux, SA (France) they are made from barium sulfate (BaSO4). Within 15” for “0.5 McFarland standards. Within 15”
(§4) Stock solutions of compounds of Formula I, Ia, Ib and Formula II, IIa, pharmaceutically acceptable salts thereof, and metal complexes thereof were made in DMSO and were micropipetted onto the discs for 25 to 200 μg/disc. The discs were dried at ambient temperature for 30-50 min before placement onto the seeded Petri dishes which were then incubated at 37° C. for 24 h. Averaged inhibition zone diameters measurements (mm) have an accuracy of ±0.5 mm; adjacent overlapping ZOI were determined using radii measurements. Antibiotic disc like (sulfamethoxazole 23.75 μg trimethoprim 1.25 μg)/disc, Gentamicin 10 μg/disc and DMSO were used as positive and negative standards (control).
(§5) Antimicrobial test was carried out to evaluate the efficacy of compounds of Formula I, Ia, Ib and Formula II, IIa, pharmaceutically acceptable salts thereof, and metal complexes thereof, as well as control tests with control compounds, against six major pathogenic bacteria namely Bacillus cereus, Pseudomonas aeruginosa, Klebsiella pneumonia, Proteus vulgaris, Staphylococcus aureus and Escherichia coli.

E. coli = assay: Disc diffusion zone of inhibition (Example 2); format: cell-based, Escherichia coli; settings: Escherichia coli, 200 μg/disc
Experimental: as §2, with “turbidity of these microbial colony” for “turbidity of the microbial colonies”, “these microbial colony were adjusted” for “the microbial colonies were adjusted”, “0.5 McFarland standards (bioMerieux, SA (France) they are made from barium sulfate (BaSO4). Within 15” for “0.5 McFarland standards. Within 15”
as §4, §5

P. aeruginosa = assay: Disc diffusion zone of inhibition (Example 2); format: cell-based, Pseudomonas aeruginosa; settings: Pseudomonas aeruginosa, 200 μg/disc
Experimental: as §2, with “turbidity of these microbial colony” for “turbidity of the microbial colonies”, “these microbial colony were adjusted” for “the microbial colonies were adjusted”, “0.5 McFarland standards (bioMerieux, SA (France) they are made from barium sulfate (BaSO4). Within 15” for “0.5 McFarland standards. Within 15”
as §4, §5

P. vulgaris = assay: Disc diffusion zone of inhibition (Example 2); format: cell-based, Proteus vulgaris; settings: Proteus vulgaris, 200 μg/disc
Experimental: as §2, with “turbidity of these microbial colony” for “turbidity of the microbial colonies”, “these microbial colony were adjusted” for “the microbial colonies were adjusted”, “0.5 McFarland standards (bioMerieux, SA (France) they are made from barium sulfate (BaSO4). Within 15” for “0.5 McFarland standards. Within 15”
as §4, §5

K. pnemonia = assay: Disc diffusion zone of inhibition (Example 2); format: cell-based, Klebsiella pneumonia; settings: Klebsiella pneumoniae, 200 μg/disc
Experimental: as §2, with “turbidity of these microbial colony” for “turbidity of the microbial colonies”, “these microbial colony were adjusted” for “the microbial colonies were adjusted”, “0.5 McFarland standards (bioMerieux, SA (France) they are made from barium sulfate (BaSO4). Within 15” for “0.5 McFarland standards. Within 15”
as §4, §5

S. aureus [3] = assay: Disc diffusion zone of inhibition (Example 2); format: cell-based, Staphylococcus aureus; settings: Staphylococcus aureus, S. aureus; for zone of inhibition at 200 µg/disc: 200 μg/disc, read-out: Zone of inhibition
Experimental: as §2, with “turbidity of these microbial colony” for “turbidity of the microbial colonies”, “these microbial colony were adjusted” for “the microbial colonies were adjusted”, “0.5 McFarland standards (bioMerieux, SA (France) they are made from barium sulfate (BaSO4). Within 15” for “0.5 McFarland standards. Within 15”
as §4, §5

[4] = DPPH antioxidant activity test; settings: 50 μg compound in 3 mL methanol; DPPH 150 μL 1 mM; 30 min, 25 °C; absorbance 517 nm
Experimental: In addition to antibacterial properties, antioxidant activity was assessed in the compounds of Formula I and II and metal complexes thereof as antioxidant compounds play an important role in remediating the toxic effects of reactive oxygen species and other free radicals. The main characteristic of an antioxidant compound is its ability to trap free radicals. Highly reactive free radicals and oxygen species are present in biological systems from a wide variety of sources. Free radical damage is known to occur during bacterial and other microbial infections. Free radicals are produced by cells of the immune system during an active infection, and generally as a result of the inflammatory processes.
DPPH (2,2-diphenyl-1-picryl-hydrazyl, 150 μL, 1 mM solution in methanol) was added to 3 mL methanol in a cuvette (0.5 in diameter) and UV-vis absorption recorded at 517 nm for baseline reading. In a cuvette, DPPH (150 μL, 1 mM solution in methanol) was added to a solution containing compound in 3 mL methanol. The reaction was allowed to stir at 25±1° C. for 30 min under exclusion of light. Absorbance was recorded at 517 nm against reference cuvette filled with methanol.

B. cereus [5] = assay: Disc diffusion zone of inhibition (Example 2); format: cell-based; settings: Bacillus cereus
S. aureus [6] = assay: Disc diffusion zone of inhibition (Example 2); format: cell-based; settings: Staphylococcus aureus

Question: What does the source list for `C(=N\c1ccccc1SCc1ccccc1)/c1ccccn1` [Compound L3]?
Answer: ZOI (Bacillus cereus; 50 μg/disc): 0 mm; ZOI (Bacillus cereus; 75 μg/disc): 0.5 mm; ZOI ([1]; 50 μg/disc): 0 mm; ZOI ([1]; 75 μg/disc): 2.5 mm

Question: What does the source list for `O=Cc1cccnc1` [3-pyridine carboxaldehyde]?
Answer: zone of inhibition at 200 µg/disc (B. cereus [2]): 27 mm; zone of inhibition at 200 µg/disc (E. coli): 24 mm; zone of inhibition at 200 µg/disc (P. aeruginosa): 23 mm; zone of inhibition at 200 µg/disc (P. vulgaris): 21 mm; zone of inhibition at 200 µg/disc (K. pnemonia): 22 mm; zone of inhibition at 200 µg/disc (S. aureus [3]): 32 mm

Question: What does the source list for `Nc1ccccc1SCc1ccc(CSc2ccccc2N)cc1` [α,α′-bis((o-aminophenyl)thio)-para-xylene]?
Answer: zone of inhibition at 50 µg/disc (B. cereus [2]; 50 μg/disc): 9 mm; zone of inhibition at 100 µg/disc (B. cereus [2]; 100 μg/disc): 16 mm; zone of inhibition at 200 µg/disc (B. cereus [2]): 19 mm; zone of inhibition at 50 µg/disc (S. aureus [3]; 50 μg/disc): 11 mm; zone of inhibition at 100 µg/disc (S. aureus [3]; 100 μg/disc): 13 mm; zone of inhibition at 200 µg/disc (S. aureus [3]): 17 mm; % Antiox-Act [4]: 65.4%

Question: For `Nc1ccccc1SCc1ccccc1` [S-benzyl-ortho-aminothiophenol, S-benzyl ortho-aminothiophenol], which zone of inhibition at 166 µg/disc (B. cereus [2]; 166 μg/disc) is on record?
Answer: Its zone of inhibition at 166 µg/disc is 12 mm.

Question: And the zone of inhibition at 166 µg/disc (S. aureus [3]; 166 μg/disc)?
Answer: Its zone of inhibition at 166 µg/disc is 11 mm.

Question: What about the zone of inhibition at 333 µg/disc (B. cereus [5]; 333 μg/disc) of the same compound?
Answer: The zone of inhibition at 333 µg/disc was 15 mm.

Question: And the zone of inhibition at 666 µg/disc (B. cereus [5]; 666 μg/disc)?
Answer: The zone of inhibition at 666 µg/disc was 16 mm.

Question: What about the zone of inhibition at 333 µg/disc (S. aureus [6]; 333 μg/disc) of the same compound?
Answer: Its zone of inhibition at 333 µg/disc is 13 mm.

Question: And the zone of inhibition at 666 µg/disc (S. aureus [6]; 666 μg/disc)?
Answer: The zone of inhibition at 666 µg/disc was 15 mm.

Question: With `C(=N\c1ccccc1SCc1ccccc1)/c1ccccn1` [N-(2-pyridinylmethylidene) S-benzyl-ortho-aminothiophenol] as the compound, how does the zone of inhibition at 75 µg/disc (B. cereus [2]; 75 μg/disc) read?
Answer: The zone of inhibition at 75 µg/disc was 7 mm.

Question: What about the zone of inhibition at 75 µg/disc (S. aureus [3]; 75 μg/disc) of the same compound?
Answer: The zone of inhibition at 75 µg/disc was 11 mm.

Question: What about the “% Antiox-Act” value [4] of the same compound?
Answer: Its value is 65.8%.

Question: With `C(=N\c1ccccc1SCc1ccccc1CSc1ccccc1/N=C/c1ccccn1)/c1ccccn1` [Compound L4] as the compound, how does the ZOI (Bacillus cereus; 200 μg/disc) read?
Answer: Its ZOI is 0.5 mm.

Question: What about the ZOI ([1]; 200 μg/disc) of the same compound?
Answer: The ZOI was 0.5 mm.

Question: Which “Zone of Inhibition” value ([1]; 6.25 μg Cu/disc) does the source give for “2-(methylthio)-N-(2-pyridylmethylene)-benzenamine copper (I) iodide [ECPP-143]” here?
Answer: The value was 0 mm.

Question: And the “Zone of Inhibition” value ([1]; 12.5 μg Cu/disc)?
Answer: The value was 0 mm.

Question: And the “Zone of Inhibition” value ([1]; 25 μg Cu/disc)?
Answer: The value was 1 mm.

Question: With `O=Cc1ccncc1` [4-pyridine carboxaldehyde] as the compound, how does the zone of inhibition at 200 µg/disc (B. cereus [2]) read?
Answer: Its zone of inhibition at 200 µg/disc is 29 mm.

Question: What about the zone of inhibition at 200 µg/disc (E. coli) of the same compound?
Answer: Its zone of inhibition at 200 µg/disc is 25 mm.

Question: And the zone of inhibition at 200 µg/disc (P. aeruginosa)?
Answer: Its zone of inhibition at 200 µg/disc is 27 mm.

Question: What about the zone of inhibition at 200 µg/disc (P. vulgaris) of the same compound?
Answer: Its zone of inhibition at 200 µg/disc is 25 mm.

Question: What about the zone of inhibition at 200 µg/disc (K. pnemonia) of the same compound?
Answer: Its zone of inhibition at 200 µg/disc is 26 mm.

Question: And the zone of inhibition at 200 µg/disc (S. aureus [3])?
Answer: The zone of inhibition at 200 µg/disc was 30 mm.

Question: For “2-(methylthio)-N-(2-phenylmethylene)-benzenamine copper (II) bromide [ECPP-167]”, which “Zone of Inhibition” value (Bacillus cereus; 6.25 μg Cu/disc) is on record?
Answer: Its value is 0 mm.

Question: What about the “Zone of Inhibition” value (Bacillus cereus; 12.5 μg Cu/disc) of the same compound?
Answer: The value was 1 mm.

Question: And the “Zone of Inhibition” value (Bacillus cereus; 25 μg Cu/disc)?
Answer: Its value is 2 mm.

Question: What about the “Zone of Inhibition” value ([1]; 6.25 μg Cu/disc) of the same compound?
Answer: Its value is 4 mm.

Question: What about the “Zone of Inhibition” value ([1]; 12.5 μg Cu/disc) of the same compound?
Answer: Its value is 5 mm.

Question: And the “Zone of Inhibition” value ([1]; 25 μg Cu/disc)?
Answer: Its value is 9 mm.
